Measured values from US11965886B2, “Method of immobilizing a cell on a support using compounds comprising a polyethylene glycol moiety” (Roche Diagnostics Operations, Inc., priority 2013, dated 2024).
Where “and” joins values, the source holds several entries; their conditions need not be identical. Identical values can stand only once. Like-named read-outs stand apart in the source and are kept apart here.

What was measured:
[1] = tested on: WBC; experiment: WBC recovery rate after centrifugation (cell stabilization, Example 5); type: cell-based; details: Centrifugation: 20 min, 300×g; 10 min, 1 h, 2 h incubation
Experimental: A) WBC Recovery Rate after Centrifugation and Cell Immobilization Using Different Molecules
Centrifugation characteristics: 10 min, 300×g.
B) WBC Recovery Rate after Centrifugation Using Different Compounds—Different Points of Time
Centrifugation characteristics: 10 min, 300×g. A: Choleseryl-TEG-Cholesteryl-TEG-(SpacerC18)7-Fluos-Biotin-TEG.
C) WBC Recovery Rate after Centrifugation—Different Experimenters
Centrifugation characteristics: 10 min, 300×g. Molecule: Cholesteryl-TEG-Cholesteryl-TEG-(SpacerC18)7-Fluos-Biotin-TEG.
D) WBC Recovery Rate after Centrifugation—Different Points of Time and Centrifugation Settings
Centrifugation characteristics: 20 min, 300×g.

[2] = tested on: WBC; experiment: as above; type: cell-based; details: Centrifugation: 20 min, 500×g
[3] = tested on: WBCs; experiment: Immobilization of cells: recovery rate of cells on SA (streptavidin) plate or untreated plate (Example 3); type: cell-based
Experimental: The following applies for modular description of the compounds below: X=hydrophobic moiety, […]=fluorescein In the following experiment, the recovery rate of cells was determined.

[4] = tested on: white blood cells (WBCs)
Experimental: In particular, the performance of a single cholesterol-molecule and different dual-linker molecules (i.e. containing two hydrophobic moieties) was tested. In detail, immobilization of white blood cells (WBCs) on a Streptavidin-coated surface using different linker molecules was tested on a 12-well plate: 300 000 WBCs/well. This was followed by the measurement of the cell recovery rate after immobilization and washing of the cells using the Cellavista instrument (10× Nuclei Operator s9s5).

[5] = tested on: NIH 3T3; experiment: Labelling of cells using compounds (staining/uptake); type: cell-based
Source text: (§1) 2. Labelling of Cells Using Compounds Useful in Methods of the Invention

[6] = tested on: Epithelial cells; experiment: as above; type: cell-based
Source text: as §1

[7] = tested on: COS 7; experiment: as above; type: cell-based
Source text: as §1

[8] = tested on: U937; experiment: as above; type: cell-based
Source text: as §1

[9] = tested on: MDA-MB468; experiment: as above; type: cell-based
Source text: as §1

[10] = tested on: CHO; experiment: as above; type: cell-based
Source text: as §1

[11] = tested on: Hela; experiment: as above; type: cell-based
Source text: as §1

[12] = tested on: Jurkats; experiment: as above; type: cell-based
Source text: as §1

[13] = tested on: MDAs in WBCs; experiment: Immobilization of cells: recovery rate of MDAs spiked in WBCs on SA-plate (Example 3); type: cell-based
Experimental: The following applies for modular description of the compounds below:
X=hydrophobic moiety, Y=PEG2000, Z=Biotin-TEG, F=Fluos=fluorescein
In the following experiment, the recovery rate of cells was determined.

[14] = tested on: WBCs; experiment: Labelling of cells using compounds (staining/uptake); type: cell-based
Source text: as §1

[15] = Sample 1, first block (concentration not given), 300 000 WBCs/well
[16] = Sample 2, compound concentration: 100 pmol/10e6 WBCs
[17] = Sample 2, compound concentration: 1 nmol/10e6 WBCs

3′-(Myristic acid)2-PEG2000-dT-Biotin-TEG-5′ INVERS [compound 1255]
WBC recovery rate after centrifugation, performance ranking [1]: followed by compound 1255 and 1254
WBC recovery rate after centrifugation, performance ranking [2]: followed by molecule 1255 and 1254

5′-(Cholesteryl-TEG)2-Spacer C18-Fluos-Biotin_TEG-3′ INVERS [29.891254]
Recovery Rate ([3]; 10 pmol/10e6 cells): 40.30%
Recovery Rate ([3]; 100 pmol/10e6 cells): 64.60% and 57.63% and 65.69% and 70.07% and 81.28%
Recovery Rate ([3]; 1 nmol/10e6 cells): 92.50% and 82.19% and 81.79% and 74.68%
Recovery Rate ([3]; 10 nmol/10e6 cells): 83.60%
WBC recovery rate after centrifugation, performance ranking [1]: followed by compound 1255 and 1254
WBC recovery rate after centrifugation, performance ranking [2]: followed by molecule 1255 and 1254
Recovery Rate [4, 15]: 57.63%
cells counted per well [4, 15]: 157660 and 190148 and 170850
Recovery Rate ([4]; Sample 1, compound concentration: 1 nmol/10e6 WBCs): 82.19%
cells counted per well ([4]; Sample 1, compound concentration: 1 nmol/10e6 WBCs, 300 000 WBCs/well): 244649 and 234262 and 260760
Mean (cells counted per well) [4, 16]: 197067.00
Recovery Rate [4, 16]: 65.69%
cells counted per well ([4]; Sample 2, compound concentration: 100 pmol/10e6 WBCs, 300 000 WBCs/well): 205917 and 185100 and 200184
Mean (cells counted per well) [4, 17]: 245376.00
Recovery Rate [4, 17]: 81.79%
cells counted per well ([4]; Sample 2, compound concentration: 1 nmol/10e6 WBCs, 300 000 WBCs/well): 247428 and 244396 and 244304

5′-CholesterylTEG-CholesterylTEG-(SpacerC18)7-dT(Determ. of concentration)-BiotinTEG-3′ [compound 1234]
Recovery Rate ([3]; 10 pmol/10e6 cells): 9.6%
Recovery Rate ([3]; 100 pmol/10e6 cells): 18.8%
Recovery Rate ([3]; 300 pmol/10e6 cells): 26.8%
Recovery Rate ([3]; 500 pmol/10e6 cells): 24.9%
Recovery Rate ([3]; 10 nmol/10e6 cells): 99.7%
Recovery Rate ([3]; WBCs, 350 pmol/10e6 cells, 0.000003% Tween21): 13.0% and 25.0%
Recovery Rate ([3]; WBCs, 350 pmol/10e6 cells, 0.00001% Tween20): 14.0% and 23.0%
Recovery Rate ([3]; WBCs, 350 pmol/10e6 cells, 0.00003% Tween20): 12.0% and 20.0%
Recovery Rate ([3]; WBCs, 350 pmol/10e6 cells, 0.00003% Tween22): 22.0% and 36.0%
Recovery Rate ([3]; WBCs, 350 pmol/10e6 cells, 0.0001% Tween21): 22.0% and 28.0%
Recovery Rate ([3]; WBCs, 350 pmol/10e6 cells, 0.0003% Tween20): 12.0% and 18.0%
Recovery Rate ([3]; WBCs, 350 pmol/10e6 cells, 0.001% Tween20): 10.0% and 15.0%
Recovery Rate ([3]; WBCs, 350 pmol/10e6 cells, 1:1 diluted): 22.0% and 25.0%
Recovery Rate ([3]; WBCs, 350 pmol/10e6 cells, US + 10′ 98° C.): 27.0% and 23.0%
Recovery Rate ([3]; WBCs, 350 pmol/10e6 cells, not evaporated, VIVA Spin): 18.0% and 19.0%
Recovery Rate ([3]; WBCs, 350 pmol/10e6 cells, untreated): 17.0% and 13.0%
Recovery Rate ([3]; WBCs, 1000 pmol/10e6 cells): 35.4%
Recovery Rate ([3]; WBCs, 1000 pmol/10e6 cells, not evaporated, VIVA Spin): 42.0% and 45.0%
WBC recovery rate after centrifugation, performance ranking [1]: best performance
WBC recovery rate after centrifugation, performance ranking [2]: best performance

5′-CholesterylTEG-CholesterylTEG-PEG2000-Fluos-3′ [29.891133]
Labelling (staining/uptake) of cells [5]: ✓
Labelling (staining/uptake) of cells [6]: ✓
Labelling (staining/uptake) of cells [7]: ✓
Labelling (staining/uptake) of cells [8]: ✓
Labelling (staining/uptake) of cells [9]: ✓
Labelling (staining/uptake) of cells [10]: ✓
Labelling (staining/uptake) of cells [11]: ✓
Labelling (staining/uptake) of cells [12]: ✓

5′-CholesterylTEG-CholesterylTEG-PEG2000-Fluos-BiotinTEG-3′ [29.891180]
Recovery rate treated cells (SA-plate) ([3]; 2.16 μg/2 × 10e6 WBCs): 78.6%
Recovery rate treated cells (SA-plate) ([3]; 21.6 μg/2 × 10e6 WBCs): 68.6%
Recovery rate treated cells (SA-plate) ([3]; 216 μg/2 × 10e6 WBCs): 50.1%
Recovery rate treated cells (SA-plate) ([3]; 5 × 10e5 WBCs (MDA spiking experiment)): 70.0% and 70.8%
Recovery rate treated cells (SA-plate) ([3]; 10e6 WBCs (MDA spiking experiment)): 69.4%
Recovery rate treated cells (SA-plate) ([3]; 200 μl Zellsus.): 67.6% and 71.9%
Recovery rate treated cells (SA-plate) ([3]; 400 μl Zellsus.): 78.4% and 84.1%
Recovery rate treated cells (SA-plate) ([3]; 10 min 4° C.): 81.6%
Recovery rate treated cells (SA-plate) ([3]; 10 min RT): 88.3%
Recovery rate treated cells (SA-plate) ([3]; 800 μl Zellsus.): 81.1% and 86.4%
Recovery rate treated cells (SA-plate) ([3]; 60 min 4° C.): 81.7%
Recovery rate treated cells (SA-plate) ([3]; 60 min RT): 85.5%
Recovery rate treated cells (untreated-plate) ([3]; cells treated with compound, untreated plate): 56.7%
Recovery rate treated cells (SA-plate) ([13]; 10e4 MDAs in WBCs): 99.0%
Recovery rate treated cells (SA-plate) ([13]; 20e3 MDAs in WBCs): 102.0%
Recovery rate treated cells (SA-plate) ([13]; 40e3 MDAs in WBCs): 102.0%

CCCCCCCCCCCCCCCCCCN1C(=CC=CC2=[N+](CCCCCCCCCCCCCCCCCC)c3ccccc3C2(C)C)C(C)(C)c2ccccc21.[O-][Cl+3]([O-])([O-])[O-] [1,1′-Dioctadecyl-3,3,3′,3′-tetramethylindocarbocyanin perchlorate]
Labelling (staining/uptake) of cells [5]: ✓*
Labelling (staining/uptake) of cells [6]: ✓
Labelling (staining/uptake) of cells [7]: ✓
Labelling (staining/uptake) of cells [8]: ✓
Labelling (staining/uptake) of cells [9]: ✓
Labelling (staining/uptake) of cells [10]: ✓
Labelling (staining/uptake) of cells [11]: ✓
Labelling (staining/uptake) of cells [12]: ✓
Labelling (staining/uptake) of cells [14]: ✓ not all

CCCCC/C=C\C/C=C\CCCCCCCCN1C(=CC=CC2=[N+](CCCCCCCC/C=C\C/C=C\CCCCC)c3ccccc3C2(C)C)C(C)(C)c2ccccc21.[O-][Cl+3]([O-])([O-])[O-] [Linol, 1,1′-dilinoleyl-3,3,3′,3′-tetramethylindocarbocyanine perchlorate]
Labelling (staining/uptake) of cells [5]: ✓
Labelling (staining/uptake) of cells [6]: ✓
Labelling (staining/uptake) of cells [7]: ✓
Labelling (staining/uptake) of cells [8]: ✓
Labelling (staining/uptake) of cells [9]: ✓
Labelling (staining/uptake) of cells [10]: ✓
Labelling (staining/uptake) of cells [11]: ✓
Labelling (staining/uptake) of cells [12]: ✓

CCCCCCCCCCCCCCCCCCCCCC[N+]1=C(/C=C/C=C2/N(CCCCCCCCCCCCCC)c3ccccc3C2(C)C)C(C)(C)c2ccccc21.[I-] [PKH26]
Labelling (staining/uptake) of cells [5]: ✓
Labelling (staining/uptake) of cells [6]: ✓ not all
Labelling (staining/uptake) of cells [7]: ✓
Labelling (staining/uptake) of cells [8]: ✓
Labelling (staining/uptake) of cells [9]: ✓
Labelling (staining/uptake) of cells [10]: ✓
Labelling (staining/uptake) of cells [11]: ✓*
Labelling (staining/uptake) of cells [12]: ✓

CCCCCCCCCCCCC/C=C/[C@@H](O)[C@H](COP(=O)([O-])OCC[N+](C)(C)C)NC(=O)CCCCc1ccc2n1[B-](F)(F)[N+]1=C(C)C=C(C)C1=C2 [Sphingomyelin, N-(4,4-difluoro-5,7-dimethyl-4-bora-3a,4a-diaza-s-indacene-3-pentanoyl)sphingosyl phosphocholine]
Labelling (staining/uptake) of cells [6]: ✓
Labelling (staining/uptake) of cells [10]: x very weak
Labelling (staining/uptake) of cells [11]: ✓
Labelling (staining/uptake) of cells [14]: (x)- very bad
